Experimental data taken from US7893196B2, “Polypeptides having antimicrobial activity and polynucleotides encoding same” (Novozymes Aderium Biotech A/S, priority 2004, dated 2011).

How the values were obtained:
Assay type in all cases: cell-based
M. luteus ATCC 9341 = assay: Radial diffusion assay; conditions: up-concentrated S. cerevisiae supernatants
Procedure: (§1) The supernatants described above in Example 10 were analyzed in a radial diffusion assay following a previously published protocol for detection of antimicrobial activity (Lehrer et al. (1991), Ultra sensitive assays for endogenous antimicrobial polypeptides, J Immunol Methods 137: 167-173). Target bacteria (10^6 colony forming units (CFU)) were added to 10 ml of underlay agarose (1% low electro-endosmosis agarose, 0.03% Trypticase soy broth, 10 mM sodium phosphate, pH 7.4, 37 degrees Celsius). Suspension was solidified on an INTEGRID Petri Dish (Becton Dickinson Labware, NJ). A 3 mm Gel Puncher was used to make holes in the underlay agarose (Amersham Pharmacia Biotech, Sweden). Samples were added to the holes and incubated at 37 degrees Celsius, 3 hours. An overlay was poured on top and the plate was incubated overnight (LB media, 7.5% Agar). Antimicrobial activity was seen as bacterial clearing zones around the wells. Living cells was counterstained by adding 10 ml, 0.2 mM MTT (3-(4,5-Dimethylthiazol-2-yl)-2,5-diphenyltetrazolium bromide Thiazolyl blue). All standard protocols has been described elsewhere (Sambrook, Fritsch, and Maniatis, 1989).
(§2) The results in Table 2 show zones of inhibition of up-concentrated samples against three ATCC strains.

S. carnosus ATCC 51365 = assay: Radial diffusion assay; conditions: up-concentrated S. cerevisiae supernatants
Procedure: as §1, §2

B. subtilis ATCC 6633 = assay: Radial diffusion assay; conditions: up-concentrated S. cerevisiae supernatants
Procedure: as §1, §2

[1] = test system: Staphylococcus aureus, ATCC 43300 (MRSA); assay: MIC microdilution assay (NCCLS/CLSI); conditions: tested 0.06-32 μg/ml
Procedure: (§3) Purified Oystrisin and Piceasin were evaluated for antimicrobial activity in a microdillution assay. The Minimal Inhibitory Concentration (MIC) was determined following the NCCLS/CLSI guidelines from CLSI (Clinical and Laboratory Standards Institute).
(§4) Oystrisin and Piceasin were tested at the following concentrations: 32; 16; 8; 4; 2; 1; 0.50; 0.25; 0.13; and 0.06 μg/ml.

[2] = test system: Staphylococcus aureus, ATCC 29213 (MSSA); assay: MIC microdilution assay (NCCLS/CLSI); conditions: tested 0.06-32 μg/ml
Procedure: as §3, §4

[3] = test system: Streptococcus pyogenes, ATCC 12344; assay: MIC microdilution assay (NCCLS/CLSI); conditions: tested 0.06-32 μg/ml
Procedure: as §3, §4

[4] = test system: Staphylococcus carnosus, ATCC 51365; assay: MIC microdilution assay (NCCLS/CLSI); conditions: tested 0.06-32 μg/ml
Procedure: as §3, §4

[5] = test system: Streptococcus pneumoniae, ATCC 49619; assay: MIC microdilution assay (NCCLS/CLSI); conditions: tested 0.06-32 μg/ml
Procedure: as §3, §4

[6] = test system: Staphylococcus epidermidis, ATCC 12228; assay: MIC microdilution assay (NCCLS/CLSI); conditions: tested 0.06-32 μg/ml
Procedure: as §3, §4

| Substance | zones of inhibition (M. luteus ATCC 9341) [mm] | zones of inhibition (S. carnosus ATCC 51365) [mm] | zones of inhibition (B. subtilis ATCC 6633) [mm] | MIC [1] [µg/mL] | MIC [2] [µg/mL] | MIC [3] [µg/mL] | MIC [4] [µg/mL] | MIC [5] [µg/mL] | MIC [6] [µg/mL] |
| --- | --- | --- | --- | --- | --- | --- | --- | --- | --- |
| Gibbosin: the polypeptide shown as amino acids 1 to 38 of SEQ ID NO:6; Mesobuthus gibbosus defensin (MKTIVLLFVLALVFCTLEMGMVEAGFGCPFNQGRCHRH; listed as Mesobuthus gibbosus) | 6 | 9 | 8 | – | – | – | – | – | – |
| Oystrisin: the polypeptide shown as amino acids 1 to 43 of SEQ ID NO:8; Crassostrea gigas defensin (MKVFVLLTLAVLLMVSADMAFAGFGCPGNQLKCNNHCKSISCR; Crassostrea gigas) | – | – | – | 16 | 32 | 0.03 | 0.5 | 0.13 | 32 |
| Piceasin: the polypeptide shown as amino acids 1 to 40 of SEQ ID NO:2; Picea glauca defensin (MKFTISIIAALAFFAQGIVAAPAPIPEAAAVAAPEAEPKA; listed as Picea glauca) | – | – | – | >32 | >32 | 1 | 16 | 16 | >32 |
| Virgisin-1: the polypeptide shown as amino acids 1 to 40 of SEQ ID NO:4; Crassostrea virginica defensin (MKVFVLLTIAVMLMVSADVALAGFGCPLNRYQCHSHCQSI; listed as Crassostrea virginica) | 5 | 7 | 6 | – | – | – | – | – | – |
| Virgisin-2: the polypeptide shown as amino acids 1 to 42 of SEQ ID NO:10; Crassostrea virginica defensin (MKVFVLLTIAVMLLVSADVATADNGCPRRPRICHNRCIYKGR; listed as Crassostrea virginica) | 0 | 8 | 5 | – | – | – | – | – | – |
